Laboratory results published in ChEMBL document CHEMBL4507277.

Tests used:
[1] = target: Serine/threonine-protein kinase Nek6 (Homo sapiens) (UniProt Q9HC98); conditions: Compound concentration 1000.0 nM
[2] = target: Cyclin-dependent kinase 8 (Homo sapiens) (UniProt P49336); conditions: Compound concentration 1000.0 nM
[3] = target: Cyclin-dependent kinase 4 (Homo sapiens) (UniProt P11802); conditions: Compound concentration 1000.0 nM
[4] = target: Serine/threonine-protein kinase 26 (Homo sapiens) (UniProt Q9P289); conditions: Compound concentration 1000.0 nM
[5] = target: Mitogen-activated protein kinase kinase kinase 20 (Homo sapiens) (UniProt Q9NYL2); conditions: Compound concentration 1000.0 nM
[6] = target: Ephrin type-A receptor 5 (Homo sapiens) (UniProt P54756); conditions: Compound concentration 1000.0 nM
[7] = target: STE20/SPS1-related proline-alanine-rich protein kinase (Homo sapiens) (UniProt Q9UEW8); conditions: Compound concentration 1000.0 nM
[8] = target: 5-hydroxytryptamine receptor 1B (Homo sapiens) (UniProt P28222); conditions: Compound concentration 10.0 uM
[9] = target: Casein kinase I isoform delta (Homo sapiens) (UniProt P48730); conditions: Compound concentration 1000.0 nM
[10] = target: Mitogen-activated protein kinase 4 (Homo sapiens) (UniProt P31152); conditions: Compound concentration 1000.0 nM
Sequence of Mitogen-activated protein kinase 4 (Homo sapiens) (P31152 whole entry): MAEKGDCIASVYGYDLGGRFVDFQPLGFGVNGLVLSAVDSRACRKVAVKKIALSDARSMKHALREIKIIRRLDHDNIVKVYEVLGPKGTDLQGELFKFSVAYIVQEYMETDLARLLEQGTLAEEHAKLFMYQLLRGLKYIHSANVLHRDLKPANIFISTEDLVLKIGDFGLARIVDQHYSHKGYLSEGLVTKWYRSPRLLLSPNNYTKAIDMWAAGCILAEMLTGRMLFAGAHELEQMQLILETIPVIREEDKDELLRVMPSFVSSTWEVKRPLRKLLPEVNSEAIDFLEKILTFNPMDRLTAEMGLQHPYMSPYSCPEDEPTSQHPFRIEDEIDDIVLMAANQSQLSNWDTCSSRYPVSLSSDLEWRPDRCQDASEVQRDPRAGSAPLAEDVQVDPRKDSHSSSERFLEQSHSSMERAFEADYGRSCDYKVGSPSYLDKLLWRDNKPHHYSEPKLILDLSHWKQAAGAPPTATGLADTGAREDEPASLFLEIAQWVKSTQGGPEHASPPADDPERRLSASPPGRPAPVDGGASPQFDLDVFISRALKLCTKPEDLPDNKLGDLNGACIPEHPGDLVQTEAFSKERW

[11] = target: Serine/threonine-protein kinase MAK (Homo sapiens) (UniProt P20794); conditions: Compound concentration 1000.0 nM
[12] = target: Myosin light chain kinase family member 4 (Homo sapiens) (UniProt Q86YV6); conditions: Compound concentration 1000.0 nM
[13] = target: Inhibitor of nuclear factor kappa-B kinase subunit epsilon (Homo sapiens) (UniProt Q14164); conditions: Compound concentration 1000.0 nM
[14] = target: Mitogen-activated protein kinase 1 (Homo sapiens) (UniProt P28482); conditions: Compound concentration 1000.0 nM
[15] = test system: Epidermal growth factor receptor (Homo sapiens), P00533 [UNDEFINED MUTATION]; conditions: Compound concentration 1000.0 nM
[16] = target: High affinity nerve growth factor receptor (Homo sapiens) (UniProt P04629); conditions: Compound concentration 1000.0 nM
[17] = target: Serine/threonine-protein kinase Chk1 (Homo sapiens) (UniProt O14757); conditions: Compound concentration 1000.0 nM
[18] = target: Serine/threonine-protein kinase 36 (Homo sapiens) (UniProt Q9NRP7); conditions: Compound concentration 1000.0 nM
[19] = target: Dual specificity mitogen-activated protein kinase kinase 4 (Homo sapiens) (UniProt P45985); conditions: Compound concentration 1000.0 nM
[20] = target: Serine/threonine-protein kinase PLK2 (Homo sapiens) (UniProt Q9NYY3); conditions: Compound concentration 1000.0 nM
[21] = target: Dual specificity protein kinase CLK4 (Homo sapiens) (UniProt Q9HAZ1); conditions: Compound concentration 1000.0 nM
Sequence of Dual specificity protein kinase CLK4 (Homo sapiens) (Q9HAZ1 whole entry, looked up): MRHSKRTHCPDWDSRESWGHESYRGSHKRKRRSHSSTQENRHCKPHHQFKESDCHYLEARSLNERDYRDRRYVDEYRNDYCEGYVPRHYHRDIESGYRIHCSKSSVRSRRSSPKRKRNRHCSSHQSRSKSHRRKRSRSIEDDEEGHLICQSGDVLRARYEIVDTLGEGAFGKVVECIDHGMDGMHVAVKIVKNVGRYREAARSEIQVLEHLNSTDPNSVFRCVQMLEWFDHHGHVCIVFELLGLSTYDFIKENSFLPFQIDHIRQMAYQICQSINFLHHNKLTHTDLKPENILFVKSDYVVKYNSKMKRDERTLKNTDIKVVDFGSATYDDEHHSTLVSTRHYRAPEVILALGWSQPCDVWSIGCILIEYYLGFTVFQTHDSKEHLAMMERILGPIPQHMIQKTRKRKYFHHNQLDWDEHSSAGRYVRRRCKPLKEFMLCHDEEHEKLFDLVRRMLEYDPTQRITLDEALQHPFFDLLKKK

[22] = target: 5-hydroxytryptamine receptor 1D (Homo sapiens) (UniProt P28221); conditions: Compound concentration 10.0 uM
[23] = target: SRSF protein kinase 1 (Homo sapiens) (UniProt Q96SB4); conditions: Compound concentration 1000.0 nM
[24] = target: Serine/threonine-protein kinase/endoribonuclease IRE1 (Homo sapiens) (UniProt O75460); conditions: Compound concentration 1000.0 nM
[25] = target: Tyrosine-protein kinase Lyn (Homo sapiens) (UniProt P07948); conditions: Compound concentration 1000.0 nM
[26] = target: Platelet-derived growth factor receptor beta (Homo sapiens) (UniProt P09619); conditions: Compound concentration 1000.0 nM
Sequence of Platelet-derived growth factor receptor beta (Homo sapiens) (P09619 whole entry, canonical isoform): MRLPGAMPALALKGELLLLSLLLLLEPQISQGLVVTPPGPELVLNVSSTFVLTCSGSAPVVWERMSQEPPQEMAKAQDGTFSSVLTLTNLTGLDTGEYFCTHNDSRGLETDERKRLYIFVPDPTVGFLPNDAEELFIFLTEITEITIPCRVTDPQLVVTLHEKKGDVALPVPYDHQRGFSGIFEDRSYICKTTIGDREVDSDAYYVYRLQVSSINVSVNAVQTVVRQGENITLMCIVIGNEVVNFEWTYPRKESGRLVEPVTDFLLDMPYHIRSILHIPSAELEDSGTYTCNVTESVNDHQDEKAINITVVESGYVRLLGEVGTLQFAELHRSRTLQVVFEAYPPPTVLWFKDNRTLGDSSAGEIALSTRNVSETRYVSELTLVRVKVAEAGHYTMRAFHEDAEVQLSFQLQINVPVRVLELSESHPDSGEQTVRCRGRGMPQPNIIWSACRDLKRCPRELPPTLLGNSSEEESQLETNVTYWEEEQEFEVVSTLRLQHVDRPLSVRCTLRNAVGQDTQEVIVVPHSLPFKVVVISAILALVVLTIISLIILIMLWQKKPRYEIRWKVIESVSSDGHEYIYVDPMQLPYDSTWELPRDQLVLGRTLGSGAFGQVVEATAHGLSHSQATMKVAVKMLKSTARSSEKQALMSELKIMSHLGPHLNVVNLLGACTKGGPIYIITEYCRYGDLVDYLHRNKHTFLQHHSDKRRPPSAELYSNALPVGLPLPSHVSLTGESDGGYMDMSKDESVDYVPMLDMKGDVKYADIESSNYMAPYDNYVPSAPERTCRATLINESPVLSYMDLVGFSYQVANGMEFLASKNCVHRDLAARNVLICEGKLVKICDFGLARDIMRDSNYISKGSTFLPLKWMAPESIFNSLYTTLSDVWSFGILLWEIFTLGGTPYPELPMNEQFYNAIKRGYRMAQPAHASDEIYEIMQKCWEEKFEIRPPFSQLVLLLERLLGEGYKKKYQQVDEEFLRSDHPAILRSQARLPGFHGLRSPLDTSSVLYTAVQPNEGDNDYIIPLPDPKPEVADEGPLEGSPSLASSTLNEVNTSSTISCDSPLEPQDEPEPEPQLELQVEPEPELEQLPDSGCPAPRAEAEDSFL

[27] = test system: Phosphatidylinositol 4,5-bisphosphate 3-kinase catalytic subunit alpha isoform (Homo sapiens), P42336 [Q546K]; conditions: Compound concentration 1000.0 nM
[28] = target: TGF-beta receptor type-1 (Homo sapiens) (UniProt P36897); conditions: Compound concentration 1000.0 nM
[29] = target: Serine/threonine-protein kinase 3 (Homo sapiens) (UniProt Q13188); conditions: Compound concentration 1000.0 nM
[30] = target: Interleukin-1 receptor-associated kinase 3 (Homo sapiens) (UniProt Q9Y616); conditions: Compound concentration 1000.0 nM
[31] = target: Maternal embryonic leucine zipper kinase (Homo sapiens) (UniProt Q14680); conditions: Compound concentration 1000.0 nM
[32] = target: Rho-associated protein kinase 2 (Homo sapiens) (UniProt O75116); conditions: Compound concentration 1000.0 nM
[33] = target: D(3) dopamine receptor (Homo sapiens) (UniProt P35462); conditions: Compound concentration 10.0 uM
[34] = target: 5-hydroxytryptamine receptor 2A (Homo sapiens) (UniProt P28223); conditions: Compound concentration 10.0 uM
Sequence of 5-hydroxytryptamine receptor 2A (Homo sapiens) (P28223 whole entry): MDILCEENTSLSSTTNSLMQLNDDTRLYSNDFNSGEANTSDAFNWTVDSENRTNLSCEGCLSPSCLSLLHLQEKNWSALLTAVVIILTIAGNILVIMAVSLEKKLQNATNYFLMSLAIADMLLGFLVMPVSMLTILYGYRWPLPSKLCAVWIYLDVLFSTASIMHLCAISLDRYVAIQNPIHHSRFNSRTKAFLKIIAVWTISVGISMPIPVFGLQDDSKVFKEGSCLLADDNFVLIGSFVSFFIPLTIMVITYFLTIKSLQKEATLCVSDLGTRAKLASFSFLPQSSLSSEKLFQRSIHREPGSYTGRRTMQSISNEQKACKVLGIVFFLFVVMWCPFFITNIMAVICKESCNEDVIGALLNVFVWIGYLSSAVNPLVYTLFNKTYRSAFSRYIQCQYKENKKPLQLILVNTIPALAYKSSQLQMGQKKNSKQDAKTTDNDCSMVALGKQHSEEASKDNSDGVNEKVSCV

[35] = target: Serine/threonine-protein kinase 4 (Homo sapiens) (UniProt Q13043); conditions: Compound concentration 1000.0 nM
[36] = target: Rhodopsin kinase GRK1 (Homo sapiens) (UniProt Q15835); conditions: Compound concentration 1000.0 nM
Sequence of Rhodopsin kinase GRK1 (Homo sapiens) (Q15835 whole entry): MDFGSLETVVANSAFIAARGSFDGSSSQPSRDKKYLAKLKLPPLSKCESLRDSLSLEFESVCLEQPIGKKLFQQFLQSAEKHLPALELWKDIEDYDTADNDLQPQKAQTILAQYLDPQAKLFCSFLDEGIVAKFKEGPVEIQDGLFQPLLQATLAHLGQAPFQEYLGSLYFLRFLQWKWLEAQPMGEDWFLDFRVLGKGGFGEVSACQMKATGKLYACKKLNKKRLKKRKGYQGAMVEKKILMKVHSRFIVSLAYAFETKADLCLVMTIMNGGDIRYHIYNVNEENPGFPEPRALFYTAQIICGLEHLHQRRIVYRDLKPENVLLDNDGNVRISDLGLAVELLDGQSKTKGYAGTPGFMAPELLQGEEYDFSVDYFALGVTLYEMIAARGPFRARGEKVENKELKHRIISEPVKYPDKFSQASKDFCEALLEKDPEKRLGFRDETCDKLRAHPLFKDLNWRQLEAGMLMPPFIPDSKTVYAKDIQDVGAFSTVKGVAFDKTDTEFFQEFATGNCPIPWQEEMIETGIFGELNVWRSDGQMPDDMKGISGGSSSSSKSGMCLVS

[37] = target: TGF-beta receptor type-2 (Homo sapiens) (UniProt P37173); conditions: Compound concentration 1000.0 nM
[38] = target: Receptor-interacting serine/threonine-protein kinase 2 (Homo sapiens) (UniProt O43353); conditions: Compound concentration 1000.0 nM
[39] = target: Phosphatidylinositol 4,5-bisphosphate 3-kinase catalytic subunit delta isoform (Homo sapiens) (UniProt O00329); conditions: Compound concentration 1000.0 nM
[40] = target: Mitogen-activated protein kinase 8 (Homo sapiens) (UniProt P45983); conditions: Compound concentration 1000.0 nM
[41] = test system: Mast/stem cell growth factor receptor Kit (Homo sapiens), P10721 [V559D]; conditions: Compound concentration 1000.0 nM
[42] = target: cGMP-dependent protein kinase 2 (Homo sapiens) (UniProt Q13237); conditions: Compound concentration 1000.0 nM
[43] = target: Mitogen-activated protein kinase kinase kinase 12 (Homo sapiens) (UniProt Q12852); conditions: Compound concentration 1000.0 nM
Sequence of Mitogen-activated protein kinase kinase kinase 12 (Homo sapiens) (Q12852 whole entry): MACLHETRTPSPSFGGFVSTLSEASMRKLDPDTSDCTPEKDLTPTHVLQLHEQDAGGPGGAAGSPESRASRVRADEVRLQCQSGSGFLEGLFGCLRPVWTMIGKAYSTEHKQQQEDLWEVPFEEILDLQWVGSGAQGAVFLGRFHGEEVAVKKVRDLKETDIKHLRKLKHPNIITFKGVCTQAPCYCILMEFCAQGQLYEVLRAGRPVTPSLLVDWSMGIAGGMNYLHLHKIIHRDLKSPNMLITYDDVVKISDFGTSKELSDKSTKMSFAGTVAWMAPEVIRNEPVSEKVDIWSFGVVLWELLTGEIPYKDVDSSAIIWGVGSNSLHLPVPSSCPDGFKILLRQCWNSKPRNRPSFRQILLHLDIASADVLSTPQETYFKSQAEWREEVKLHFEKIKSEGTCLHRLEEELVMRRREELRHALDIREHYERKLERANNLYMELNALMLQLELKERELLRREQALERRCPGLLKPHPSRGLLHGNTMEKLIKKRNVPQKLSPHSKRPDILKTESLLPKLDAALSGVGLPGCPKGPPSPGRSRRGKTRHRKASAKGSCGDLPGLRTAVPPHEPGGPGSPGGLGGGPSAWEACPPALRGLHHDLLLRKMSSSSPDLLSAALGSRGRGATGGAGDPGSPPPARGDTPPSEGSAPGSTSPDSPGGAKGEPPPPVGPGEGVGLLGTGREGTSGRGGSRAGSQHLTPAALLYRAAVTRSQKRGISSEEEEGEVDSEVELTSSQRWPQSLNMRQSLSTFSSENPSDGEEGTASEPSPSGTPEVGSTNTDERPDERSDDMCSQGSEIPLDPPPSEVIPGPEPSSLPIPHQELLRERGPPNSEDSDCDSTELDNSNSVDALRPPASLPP

[44] = target: cAMP-dependent protein kinase catalytic subunit PRKX (Homo sapiens) (UniProt P51817); conditions: Compound concentration 1000.0 nM
[45] = test system: Tyrosine-protein kinase ABL1 (Homo sapiens), P00519 [H396P]; conditions: Compound concentration 1000.0 nM

Sequence of Cyclin-dependent kinase 4 (Homo sapiens) (P11802 whole entry): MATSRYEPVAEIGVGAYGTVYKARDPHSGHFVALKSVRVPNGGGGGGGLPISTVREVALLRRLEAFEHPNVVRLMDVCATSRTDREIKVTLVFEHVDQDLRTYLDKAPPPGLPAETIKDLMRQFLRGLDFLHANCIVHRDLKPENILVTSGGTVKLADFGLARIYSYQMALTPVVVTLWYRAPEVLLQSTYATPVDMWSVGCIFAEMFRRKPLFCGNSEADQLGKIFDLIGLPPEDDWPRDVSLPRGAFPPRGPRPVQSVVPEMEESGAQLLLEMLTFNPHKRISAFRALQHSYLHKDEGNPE
Sequence of Cyclin-dependent kinase 8 (Homo sapiens) (P49336 whole entry): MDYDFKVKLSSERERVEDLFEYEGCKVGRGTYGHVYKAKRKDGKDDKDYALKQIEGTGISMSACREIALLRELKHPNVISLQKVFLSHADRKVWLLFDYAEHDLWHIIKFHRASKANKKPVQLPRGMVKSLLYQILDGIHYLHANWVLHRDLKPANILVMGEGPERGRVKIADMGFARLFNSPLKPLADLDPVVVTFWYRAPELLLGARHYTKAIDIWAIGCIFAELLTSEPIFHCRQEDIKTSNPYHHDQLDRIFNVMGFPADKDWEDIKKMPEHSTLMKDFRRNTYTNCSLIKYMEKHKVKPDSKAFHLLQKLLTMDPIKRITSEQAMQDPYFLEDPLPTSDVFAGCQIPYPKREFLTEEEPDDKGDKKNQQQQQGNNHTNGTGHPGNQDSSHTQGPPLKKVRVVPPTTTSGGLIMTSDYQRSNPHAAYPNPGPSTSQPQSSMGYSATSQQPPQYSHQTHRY

CCS(=O)(=O)c1cc2cc(C[C@](O)(CC(C)(C)c3ccc(F)cc3C(N)=O)C(F)(F)F)[nH]c2cn1
inactive: residual activity [1] 100% | residual activity [2] 100% | residual activity [3] 97% | residual activity [4] 94% | residual activity [5] 87% | residual activity [6] 100% | residual activity [7] 100% | inhibition [8] 9.55% | residual activity [9] 96% | residual activity [10] 100% | residual activity [11] 100% | residual activity [12] 100% | residual activity [13] 100% | residual activity [14] 100% | residual activity [15] 93% | residual activity [16] 82% | residual activity [17] 97% | residual activity [18] 100% | residual activity [19] 100% | residual activity [20] 91% | residual activity [21] 95% | inhibition [22] 5.54% | residual activity [23] 83% | residual activity [24] 91% | residual activity [25] 100% | residual activity [26] 100% | residual activity [27] 80% | residual activity [28] 100% | residual activity [29] 97% | residual activity [30] 96% | residual activity [31] 100% | residual activity [32] 100% | inhibition [33] 7.81% | inhibition [34] 12.6% | residual activity [35] 100% | residual activity [36] 100% | residual activity [37] 100% | residual activity [38] 67% | residual activity [39] 89% | residual activity [40] 100% | residual activity [41] 100% | residual activity [42] 85% | residual activity [43] 100% | residual activity [44] 100% | residual activity [45] 100%

CCS(=O)(=O)c1cc2cc(C[C@@](O)(CC(C)(C)c3ccc(F)cc3C(N)=O)C(F)(F)F)[nH]c2cn1
inactive: residual activity [1] 100% | residual activity [2] 100% | residual activity [3] 100% | residual activity [4] 91% | residual activity [5] 100% | residual activity [6] 100% | residual activity [7] 84% | inhibition [8] 4.85% | residual activity [9] 100% | residual activity [10] 84% | residual activity [11] 100% | residual activity [12] 100% | residual activity [13] 83% | residual activity [14] 94% | residual activity [15] 79% | residual activity [16] 74% | residual activity [17] 100% | residual activity [18] 98% | residual activity [19] 100% | residual activity [20] 100% | residual activity [21] 100% | inhibition [22] 7.98% | residual activity [23] 90% | residual activity [24] 75% | residual activity [25] 100% | residual activity [26] 100% | residual activity [27] 69% | residual activity [28] 100% | residual activity [29] 100% | residual activity [30] 67% | residual activity [31] 100% | residual activity [32] 76% | inhibition [33] 1.8% | inhibition [34] 14.1% | residual activity [35] 100% | residual activity [36] 100% | residual activity [37] 100% | residual activity [38] 100% | residual activity [39] 90% | residual activity [40] 98% | residual activity [41] 100% | residual activity [42] 86% | residual activity [43] 83% | residual activity [44] 77% | residual activity [45] 99%
